Experimental findings from patent publication US20260199323A1, “LIGAND COMPOUNDS FOR E3 UBIQUITIN LIGASE, PROTEIN DEGRADERS DEVELOPED ON BASIS OF LIGAND COMPOUNDS, AND USES THEREOF” (GLUETACS THERAPEUTICS (SHANGHAI) CO., LTD., priority 2021, published 2026) are described below.

One experiment relates to MM.1R. Put plainly: CCK-8 tumor cell proliferation, MM.1R. The class given is cell-based. The settings on record: for IC50: read-out: Inhibitory activity (IC50, nM) against tumor cell proliferation, MM.1R; for pIC50: Table 19, IRAK4 inhibitor based, read-out: IC50 inhibiting proliferation of tumor cells, MM.1R. How it is done:
(§1) The tumor cells used herein were cultured in a cell culture medium listed in table 4 at 37° C. in an incubator with 5% CO2. Prior to experimentation, all cells used were correctly identified by STR profiling, and tested negative for mycoplasma through routine screenings.
(§2) IC50 values of the compounds of the present disclosure (including the compounds in Tables 1 and 3, and compounds of examples) were measured using the Meilun Cell Counting Kit-8 kit from Dalian Meilun Biotech Co., Ltd. Assay details are as follows: tumor cells were seeded in a 96-well plate at a density listed in Table 5. After 24 h, 100 μL of the inoculated cells were treated with 0.5 μL of the compounds of the present disclosure (including the compounds in Tables 1 and 3, and compounds of examples) at 10 different successively decreasing concentrations (starting at the highest concentration of 10 μM; 5-fold serial dilutions). After the cells were treated with the compounds of the present disclosure for a period of time, the cell viability detection reagent was added to the culture medium for cell viability assessment according to the instructions provided with the CCK-8 kit. […] The growth inhibition of the compounds of the present disclosure on cells was plotted by Prism Graphpad software, and the IC50 values of the compounds of the present disclosure were calculated therefrom.

Another experiment has as its system CAL-62. Put plainly: CCK-8 tumor cell proliferation, CAL-62. The class given is cell-based, Human. To be noted: Homo sapiens, CAL-62; for IC50: read-out: Inhibitory activity (IC50, nM) against tumor cell proliferation, CAL-62; for pIC50: read-out: IC50 inhibiting proliferation of tumor cells, CAL-62. The procedure, abridged:
(§3)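 Ten-point titrations (10 μM highest, 5-fold steps) were applied to cells 24 h after seeding. After treatment at 37 °C, 5% CO2, cell viability was read with CCK-8 and IC50 values were computed from the resulting inhibition curves.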

Another experiment concerns Jurkat. Nature of the experiment: CCK-8 tumor cell proliferation, Jurkat. The class given is cell-based, Human. The settings on record: Homo sapiens; for IC50: Table 23, compared to Comparative Example compounds, read-out: Inhibitory activity (IC50, nM) against tumor cell proliferation, Jurkat; for pIC50: Table 19, IRAK4 inhibitor based, read-out: IC50 inhibiting proliferation of tumor cells, Jurkat. Here is the method: as §1, §2

Another experiment relates to SW620. Put plainly: CCK-8 tumor cell proliferation, SW620. The experiment is classed as cell-based, Human. To be noted: Homo sapiens, SW-620; Table 18, FAK inhibitor based; SW620; read-out: IC50 inhibiting proliferation of tumor cells, SW620. How it is done:
as §1, §2

A further experiment deals with MDA-MB-231. Put plainly: CCK-8 tumor cell proliferation, MDA-MB-231. The experiment is classed as cell-based, Human. To be noted: Homo sapiens; Table 18, FAK inhibitor based; MDA-MB-231; read-out: IC50 inhibiting proliferation of tumor cells, MDA-MB-231. The procedure, abridged:
as §3

The next experiment has as its system PC-9. Put plainly: CCK-8 tumor cell proliferation, PC-9. The class given is cell-based, Human. The settings on record: Homo sapiens; Table 18, FAK inhibitor based; PC-9; read-out: IC50 inhibiting proliferation of tumor cells, PC-9. How it is done:
The tumor cells used herein were cultured in a cell culture medium listed in table 4 at 37° C. in an incubator with 5% CO2.
as §2, with “After” for “IC50 values of the compounds of the present disclosure (including the compounds in Tables 1 and 3, and compounds of examples) were measured using the Meilun Cell Counting Kit-8 kit from Dalian Meilun Biotech Co., Ltd. Assay details are as follows: tumor cells were seeded in a 96-well plate at a density listed in Table 5. After”

The test system of the next experiment is CCRF-CEM. Nature of the experiment: CCK-8 tumor cell proliferation, CCRF-CEM. The experiment is classed as cell-based, Human. Details: IC50 for inhibiting the proliferation of tumor cells, CCRF-CEM: scale not given here. To be noted: for pIC50: Homo sapiens, Table 18, FAK inhibitor based, CCRF-CEM, read-out: IC50 inhibiting proliferation of tumor cells, CCRF-CEM; for IC50 for inhibiting the proliferation of tumor cells, CCRF-CEM: 96 h. The procedure, abridged:
as §3

A further experiment has as its system Mino. Put plainly: CCK-8 tumor cell proliferation, Mino. The class given is cell-based, Human. The settings on record: for pIC50: Homo sapiens, Table 18, FAK inhibitor based, Mino, read-out: IC50 inhibiting proliferation of tumor cells, Mino. Here is the method:
as §1, §2

Another experiment has as its system MM.1S. Nature of the experiment: CCK-8 tumor cell proliferation, MM.1S. The settings on record: Homo sapiens, MM1.S; Table 18, FAK inhibitor based; MM.1S; read-out: IC50 inhibiting proliferation of tumor cells, MM.1S. The class given is cell-based. Here is the method:
as §1, §2

A further experiment has as its system Kasumi-1. Nature of the experiment: CCK-8 tumor cell proliferation, Kasumi-1. The experiment is classed as cell-based, Human. To be noted: 72 h. Here is the method:
as §1, §2

Where [1] appears, read: Table 23, compared to Comparative Example compounds.
Setting [2] is: Table 19, IRAK4 inhibitor based.
The mark [3] stands for this setting: Table 8, designed based on ER inhibitors.
The mark [4] stands for this setting: Table 16, designed based on BET inhibitors.

pIC50: −log10 of the molar value. Like-named read-outs stand apart in the source and are kept apart here.

On to `CCc1cc2c(cc1N1CCC(N3CCN(CCCc4ccc5c(c4)CN(C4CCC(=O)NC4=O)C5=O)CC3)CC1)C(C)(C)c1[nH]c3cc(C#N)ccc3c1C2=O` (stereo not drawn) [GT-04457, 8-(4-(4-(3-(2-(2,6-dioxopiperidin-3-yl)-1-oxoisoindolin-5-yl)propyl)piperazin-1-yl)piperidin-1-yl)-9-ethyl-6,6-dimethyl-11-oxo-6,11-dihydro-5H-benzo[b]carbazole-3-carbonitrile], for which the results for the IC50 in the experiment with MM.1R (setting [1]), in the experiment on CAL-62 (setting [1]) and with Jurkat were 5000 to 10000 nM, 5000 to 10000 nM and 100 to 500 nM, respectively.

`CC(C)(O)c1cc2nc(C3CCN(Cc4ccc5c(c4F)CN(C4CCC(=O)NC4=O)C5=O)CC3)oc2cc1NC(=O)c1cccc(C(F)(F)F)n1` (stereo not drawn) [GT-04518, N-(2-(1-((2-(2,6-dioxopiperidin-3-yl)-4-fluoro-1-oxoisoindolin-5-yl)methyl)piperidin-4-yl)-5-(2-hydroxypropan-2-yl)benzo[d]oxazol-6-yl)-6-(trifluoromethyl)picolinamide]: the pIC50 is 7.00 to 7.30 with MM.1R, 6.30 to 7.00 in the experiment on CAL-62 (setting [2]) and > 7.30 in the experiment on Jurkat.

On to `CCc1cc2c(cc1N1CCC(N3CCN(CCc4ccc5c(c4)CN(C4CCC(=O)NC4=O)C5=O)CC3)CC1)C(C)(C)c1[nH]c3cc(C#N)ccc3c1C2=O` (stereo not drawn) [GT-04512, 8-(4-(4-(2-(2-(2,6-dioxopiperidin-3-yl)-1-oxoisoindolin-5-yl)ethyl)piperazin-1-yl)piperidin-1-yl)-9-ethyl-6,6-dimethyl-11-oxo-6,11-dihydro-5H-benzo[b]carbazole-3-carbonitrile], for which the IC50 with MM.1R (setting [1]) was in the range of 1000 to 5000 nM; with CAL-62 (setting [1]), 1000 to 5000 nM; in the experiment on Jurkat it was 100 to 500 nM.

For `O=C1CCC(N2Cc3cc(CCN4CCN(c5ccc([C@@H]6c7ccc(O)cc7CC[C@@H]6c6ccccc6)cc5)CC4)ccc3C2=O)C(=O)N1` (stereo partly drawn) [GT-04562, 3-(5-(2-(4-(4-((1R,2S)-6-hydroxy-2-phenyl-1,2,3,4-tetrahydronaphthalen-1-yl)phenyl)piperazin-1-yl)ethyl)-1-oxoisoindolin-2-yl)piperidine-2,6-dione], the IC50 with MM.1R (setting [1]) lay in the range of 5000 to 10000 nM; with CAL-62 (setting [1]), 1000 to 5000 nM; in the experiment with Jurkat it was 100 to 500 nM.

In the case of `CS(=O)(=O)c1cccc(CNc2nc(Nc3ccc(N4CCN(Cc5ccc6c(c5)CN(C5CCC(=O)NC5=O)C6=O)CC4)cc3)ncc2C(F)(F)F)c1` (stereo not drawn) [GT-03792, 3-(5-((4-(4-((4-((3-(methylsulfonyl)benzyl)amino)-5-(trifluoromethyl)pyrimidin-2-yl)amino)phenyl)piperazin-1-yl)methyl)-1-oxoisoindolin-2-yl)piperidine-2,6-dione], the pIC50 in the experiment on SW620 is > 7.30; in the experiment on MDA-MB-231 it was > 7.30; in the experiment on PC-9 it was 5.30 to 6.00; with CCRF-CEM it was > 7.30; in the experiment on Mino, 6.30 to 7.00; with CAL-62 (Table 18, FAK inhibitor based) it was > 7.30. The pIC50 with MM.1S is > 7.30.

As to `Nc1ncnc2c1c(-c1ccc(Oc3ccccc3)cc1)nn2C1CCN(CCCc2ccc3c(c2)CN(C2CCC(=O)NC2=O)C3=O)CC1` (stereo not drawn) [GT-04565, 3-(5-(3-(4-(4-amino-3-(4-phenoxyphenyl)-1H-pyrazolo[3,4-d]pyrimidin-1-yl)piperidin-1-yl)propyl)-1-oxoisoindolin-2-yl)piperidine-2,6-dione], the IC50 in the experiment with MM.1R (Table 23, given as number) was > 10000 nM; in the experiment on CAL-62 (Table 23, given as number) it was > 10000 nM; in the experiment on Jurkat, 5000 to 10000 nM.

As for `O=C1CCC(N2Cc3cc(CN4CCN(c5ccc(C(=C(CCCl)c6ccccc6)c6ccccc6)cc5)CC4)ccc3C2=O)C(=O)N1` (stereo not drawn) [GT-03637, 3-(5-((4-(4-(4-chloro-1,2-diphenylbut-1-en-1-yl)phenyl)piperazin-1-yl)methyl)-1-oxoisoindolin-2-yl)piperidine-2,6-dione], the “IC50 for inhibiting the proliferation of tumor cells, CCRF-CEM” value in the experiment with CCRF-CEM (setting [3]) is “A+”. Moreover, in the experiment with Mino (Table 8, designed based on ER inhibitors, 72 h), the “IC50 for inhibiting the proliferation of tumor cells, Mino” value was “A+”. Further, the “IC50 for inhibiting the proliferation of tumor cells, Kasumi-1” value in the experiment with Kasumi-1 (setting [3]) is on record as “A+”.

Take `CS(=O)(=O)c1cccc(CNc2nc(Nc3ccc(N4CCN(Cc5cc6c(cc5F)C(=O)N(C5CCC(=O)NC5=O)C6)CC4)cc3)ncc2C(F)(F)F)c1` (stereo not drawn) [GT-03818, 3-(6-fluoro-5-((4-(4-((4-((3-(methylsulfonyl)benzyl)amino)-5-(trifluoromethyl)pyrimidin-2-yl)amino)phenyl)piperazin-1-yl)methyl)-1-oxoisoindolin-2-yl)piperidine-2,6-dione]: the pIC50 in the experiment on SW620 is > 7.30; in the experiment on MDA-MB-231, > 7.30; in the experiment with CCRF-CEM, > 7.30; in the experiment on Mino, > 7.30; in the experiment on CAL-62 (Table 18, FAK inhibitor based) it was > 7.30; with MM.1S, > 7.30.

For the compound `O=C1CCC(N2Cc3cc(CCCN4CCN(c5ccc([C@@H]6c7ccc(O)cc7CC[C@@H]6c6ccccc6)cc5)CC4)ccc3C2=O)C(=O)N1` (stereo partly drawn) [GT-04564, 3-(5-(3-(4-(4-((1R,2S)-6-hydroxy-2-phenyl-1,2,3,4-tetrahydronaphthalen-1-yl)phenyl)piperazin-1-yl)propyl)-1-oxoisoindolin-2-yl)piperidine-2,6-dione], the IC50 with MM.1R (setting [1]) lay within 1000 to 5000 nM; in the experiment with CAL-62 (setting [1]), 1000 to 5000 nM; in the experiment with Jurkat it was 100 to 500 nM.

As to `CC(C)(O)c1cc2nc(C3CCN(Cc4cc5c(cc4F)C(=O)N(C4CCC(=O)NC4=O)C5)CC3)oc2cc1NC(=O)c1cccc(C(F)(F)F)n1` (stereo not drawn) [GT-04519, N-(2-(1-((2-(2,6-dioxopiperidin-3-yl)-6-fluoro-1-oxoisoindolin-5-yl)methyl)piperidin-4-yl)-5-(2-hydroxypropan-2-yl)benzo[d]oxazol-6-yl)-6-(trifluoromethyl)picolinamide], the pIC50 with MM.1R, in the experiment on CAL-62 (setting [2]) and in the experiment with Jurkat was > 7.30 each time.

As for `Cc1sc2c(c1C)C(c1ccc(Cl)cc1)=N[C@@H](CC(=O)N1CCN(Cc3ccc4c(c3)CN(C3CCC(=O)NC3=O)C4=O)CC1)c1nnc(C)n1-2` (stereo partly drawn) [GT-02967, 3-(5-((4-(2-((S)-4-(4-chlorophenyl)-2,3,9-trimethyl-6H-thieno[3,2-f][1,2,4]triazolo[4,3-a][1,4]diazepin-6-yl)acetyl)piperazin-1-yl)methyl)-1-oxoisoindolin-2-yl)piperidine-2,6-dione], the “IC50 for inhibiting the proliferation of tumor cells, CCRF-CEM” value with CCRF-CEM (setting [4]) is listed as “A+”. Further, in the experiment with Kasumi-1 (setting [4]), the “IC50 for inhibiting the proliferation of tumor cells, Kasumi-1” value is given as “A+”.

Take `COc1cc(N2CCC(N(C)CCc3ccc4c(c3)CN(C3CCC(=O)NC3=O)C4=O)CC2)ccc1Nc1ncc(Cl)c(Nc2ccccc2P(C)(C)=O)n1` (stereo not drawn) [GT-04513, 3-(5-(2-((1-(4-((5-chloro-4-((2-(dimethylphosphoryl)phenyl)amino)pyrimidin-2-yl)amino)-3-methoxyphenyl)piperidin-4-yl)(methyl)amino)ethyl)-1-oxoisoindolin-2-yl)piperidine-2,6-dione]: the figures for the IC50 in the experiment on MM.1R (setting [1]), in the experiment with CAL-62 (setting [1]) and in the experiment on Jurkat were 100 to 500 nM, 1000 to 5000 nM and 1000 to 5000 nM, respectively.
